Assay results from PMC10567702, “A concerted ATPase cycle of the protein transporter AAA-ATPase Bcs1” (Nature Communications, 2023).

Legend:
[1] = target: T1, Bcs1 (mBcs1) (Mus musculus, UniProt Q9CZP5); experiment: microscale thermophoresis, RED-tris-NTA labelled Bcs1; format: binding
T1 construct: gene Bcs1l; full length residues 1-418, C-terminal hexa-His tag, expressed in Pichia pastoris, purified in DDM, homo-heptamer; reconstituted in soy polar lipid membranes for HS-AFM
T1 sequence (Q9CZP5 1-418): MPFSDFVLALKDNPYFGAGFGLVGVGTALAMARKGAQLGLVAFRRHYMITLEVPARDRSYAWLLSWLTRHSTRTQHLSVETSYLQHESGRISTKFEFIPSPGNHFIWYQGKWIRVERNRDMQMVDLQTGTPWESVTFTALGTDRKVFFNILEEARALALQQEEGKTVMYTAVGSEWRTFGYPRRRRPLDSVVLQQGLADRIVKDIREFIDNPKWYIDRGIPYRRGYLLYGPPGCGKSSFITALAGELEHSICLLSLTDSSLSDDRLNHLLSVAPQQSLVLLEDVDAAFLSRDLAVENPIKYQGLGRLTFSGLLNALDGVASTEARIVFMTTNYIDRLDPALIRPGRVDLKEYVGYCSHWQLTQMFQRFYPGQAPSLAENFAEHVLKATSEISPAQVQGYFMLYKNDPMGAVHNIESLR

[2] = target: T1, Bcs1 (mBcs1); experiment: HS-AFM imaging, conformational change on binding; conditions: 10 µM ATPγS; reconstituted membranes; 10 mM HEPES pH 7.5, 200 mM NaCl, 2 mM MgCl2; ambient temperature
[3] = target: T1, Bcs1 (mBcs1); experiment: HS-AFM imaging, probability of AMP-PNP conformation, Hill fit; format: binding

SMILES: Nc1ncnc2c1ncn2[C@@H]1O[C@H](COP(=O)(O)OP(=O)(O)O)[C@@H](O)[C@H]1O [ADP]
- Kd [1]: ~500 nM

SMILES: Nc1ncnc2c1ncn2[C@@H]1O[C@H](COP(=O)(O)OP(=O)(O)OP(O)(O)=S)[C@@H](O)[C@H]1O [ATPγS]
- HS-AFM imaging, conformational change on binding [2]: In the presence of ATPγS however, instead of a ring structure, we found a rather flat disk

SMILES: Nc1ncnc2c1ncn2[C@@H]1O[C@H](COP(=O)(O)OP(=O)(O)NP(=O)(O)O)[C@@H](O)[C@H]1O [AMP-PNP]
- EC50 [3]: ~4000 nM
